Experimental data published in publication PMC8745263 (International Journal of Molecular Sciences, 2021).

Target: T1, APEH partially purified from human blood cells (Homo sapiens, UniProt P13798)
T1 construct: incubated with APEH partially purified from human blood cells; from tissue; host or cells: human red blood cells (erythrocyte hemolysate from donors' blood)
T1 sequence (P13798 1-732): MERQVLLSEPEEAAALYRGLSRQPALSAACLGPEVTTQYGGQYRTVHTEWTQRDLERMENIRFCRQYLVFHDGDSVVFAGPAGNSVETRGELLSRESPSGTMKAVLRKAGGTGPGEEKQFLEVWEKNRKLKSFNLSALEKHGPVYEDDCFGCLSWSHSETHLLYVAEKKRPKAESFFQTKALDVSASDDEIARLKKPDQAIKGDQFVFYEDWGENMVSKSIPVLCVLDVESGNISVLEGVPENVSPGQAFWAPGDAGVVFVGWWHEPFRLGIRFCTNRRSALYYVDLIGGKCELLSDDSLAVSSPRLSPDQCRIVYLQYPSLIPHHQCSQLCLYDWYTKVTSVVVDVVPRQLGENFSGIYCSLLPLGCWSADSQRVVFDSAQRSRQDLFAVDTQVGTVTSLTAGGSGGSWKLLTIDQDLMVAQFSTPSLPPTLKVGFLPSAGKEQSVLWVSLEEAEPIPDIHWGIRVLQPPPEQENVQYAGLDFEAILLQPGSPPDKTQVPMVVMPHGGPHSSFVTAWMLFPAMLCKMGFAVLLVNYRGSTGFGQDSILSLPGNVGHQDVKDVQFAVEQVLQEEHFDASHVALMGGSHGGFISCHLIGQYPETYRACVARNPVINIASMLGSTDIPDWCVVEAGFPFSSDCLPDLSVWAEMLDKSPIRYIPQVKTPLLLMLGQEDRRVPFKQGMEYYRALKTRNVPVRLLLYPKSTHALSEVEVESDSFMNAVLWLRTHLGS
Assay: Treatment of peptides with APEH and assessment of proteolysis by LC-MS
Format: biochemical
Conditions: APEH 0.7 μg, 37 °C, 48 h; for % Degradation (overall % of peptide degraded upon exposure to APEH): sum of fragment % of Table 2(a), Tris-HCl 25 mM pH 7.5, N.D. = not degraded
Method: In order to identify the potential cleavage sites of APEH on the oxidized GDF11[48-64], the peptide was incubated alone or in combination with the enzyme and the corresponding reaction mixtures were analyzed by LC-MS. The same experiments were performed using the non-oxidized analogues as control.
Blood samples were taken from donors using syringes with heparin. In accordance with ethical principles stated in the Declaration of Helsinki, as well as with approved national and international guidelines for human research, a written informed consent was obtained from participants. The erythrocytes were separated from the plasma by centrifugation at 1800× g for 5 min at 4 °C and washed twice with an isotonic solution (10 mM Tris-HCl pH 7.6, […]; 4 °C). Lysis of erythrocytes was carried out by incubation in hypotonic solution (25 mM Tris/HCl, pH 7.5) for 30 min on ice. The hemolysate was obtained by centrifugation of the lysate at 9200× g for 40 min at 4 °C. Then, the ‘soluble fraction’ was loaded onto a DEAE Sepharose Fast Flow column, connected to an AKTA FPLC system (Amersham Biosciences, Amersham, UK), previously equilibrated in 25 mM Tris-HCl (pH 7.5) (buffer A). The bound proteins were eluted using a linear ionic strength gradient (0–100%) of 1 M NaCl in buffer A at a flow rate of 1 mL min^−1. The active fractions were collected, pooled, dialyzed against 25 mM Tris-HCl pH 7.5 and loaded on a Superdex 200 PC 3.2/30 column (Pharmacia Biotech, Stockholm, Sweden) connected to a SMART System (Pharmacia Biotech, Stockholm, Sweden). The bound proteins were eluted with 25 mM Tris-HCl buffer, pH 7.5, containing 50 mM NaCl, at a flow rate of 0.1 mL min^−1. The active fractions were collected, pooled, dialyzed against 25 mM Tris-HCl pH 7.5 and stored in the same buffer supplemented with 5% glycerol. Enzyme purification was monitored using Ac-Met-7-amino-4-methylcoumarin (AMC) as substrate. Active fractions were analyzed by SDS-PAGE (12%) in order to evaluate the enrichment of the protein during the various purification steps. The protein was also characterized by Western Blot analysis. Aliquots of protein samples were subjected to SDS-PAGE (8%), and then electroblotted onto PVDF membranes (ImmobilonTM, Millipore, Milan, Italy). Membranes were next incubated with the specific primary antibody (sc-102311, 1:5000, Santa Cruz Biotechnology, USA) and then with the horseradish peroxidase-conjugated secondary antibody for 1 h at 37 °C (1:5000, Santa Cruz Biotechnology, Dallas, TX, USA). The immune complexes formed were visualized by enhanced chemiluminescence and autoradiography, according to the manufacturer’s protocol (Amersham Biosciences, Amersham, UK). Molecular mass of the native enzyme was established by gel filtration chromatography on a Superdex 200 PC 3.2/30 column (Pharmacia Biotech, Stockholm, Sweden), connected to a SMART system (Pharmacia Biotech, Stockholm, Sweden), and calibrated with BioRad gel filtration standards (BioRad, Milano, Italy; code 151-1901). The enzyme inhibition assay was performed on APEH preparation using the selective and potent inhibitor AA74-1 (SML0358, Sigma-Aldrich, Milano, Italy). Mixtures containing appropriate amount of inhibitor (62 µM) and APEH sample (0.7 μg) were pre-incubated for 30 min at 37 °C; then the substrate Ac-Met-7-amino-4-methylcoumarin (AMC) was added to the assay mixture and the enzymatic activity was followed as previously described. Control samples were prepared by pre-incubating the same amounts of APEH without the inhibitor and then assayed following the same procedure.
In total, 10 nmol/200 μL of each molecule was incubated with APEH partially purified from human blood cells (0.7 μg, 24.000 total units) at 37 °C for 48 h in Tris-HCl 25 mM pH 7.5. […]

[1] = 10 nmol/200 μL peptide, Tris-HCl 25 mM pH 7.5, EIC peak areas, average of three independent experiments
[2] = 10 nmol/200 μL peptide, Tris-HCl 25 mM pH 7.5, EIC peak areas, average of three independent experiments, listed as GDF11[48-64]ox
[3] = 10 nmol/200 μL peptide, Tris-HCl 25 mM pH 7.5, EIC peak areas, average of three independent experiments, listed as GDF11 wt

Row | % fragment cleaved at L60 (Ac-...HTHL, lacking VQQA), percentage of the initial substrate [1] [%] | % fragment cleaved on carboxy side of H59 (Ac-...HTH, lacking LVQQA), percentage of the initial substrate [1] [%] | % fragment cleaved on carboxy side of Q62 (Ac-...HTHLVQ, lacking QA), percentage of the initial substrate [1] [%] | % intact peptide left after APEH exposure (percentage of the initial substrate) [1] [%] | % fragment cleaved at L60 (Ac-...HTHL, lacking VQQA), percentage of the initial substrate [2] | % fragment cleaved on carboxy side of H59 (Ac-...HTH, lacking LVQQA), percentage of the initial substrate [2] | % fragment cleaved on carboxy side of Q62 (Ac-...HTHLVQ, lacking QA), percentage of the initial substrate [2] | % fragment cleaved on carboxy side of H59 (Ac-...HTH, lacking LVQQA), percentage of the initial substrate [3] [%] | % fragment cleaved on carboxy side of Q62 (Ac-...HTHLVQ, lacking QA), percentage of the initial substrate [3] [%] | cleavage at H59 as % of the total processed peptide (Tris-HCl 25 mM pH 7.5) | cleavage at L60 as % of the total processed peptide (Tris-HCl 25 mM pH 7.5) | cleavage at Q62 as % of the total processed peptide (Tris-HCl 25 mM pH 7.5) | % Degradation (overall % of peptide degraded upon exposure to APEH) (10 nmol/200 μL peptide) [%] | % Degradation (overall % of peptide degraded upon exposure to APEH) (10 nmol/200 μL peptide, listed as GDF11[48-64]ox) | susceptibility to APEH endoprotease cleavage (in words) (Tris-HCl 25 mM pH 7.5) | Substance
1 | 8.4 | 25.6 | 16.4 | 49.6 | about 8% | about 26% | about 16% | ~28 | 18 | around 50% | about 17% | around 32% | 50.4 | around 50% | – | Ac-EYM(ox)FM(ox)QKYPHTHLVQQA-NH2 [GDF11[48-64] wt ox, GDF11[48-64]wt bearing sulphoxide groups on M50 and M52, by 3% H2O2 treatment]
2 | – | – | – | – | – | – | – | – | – | – | – | – | – | – | No cleavage | Ac-EYMFMQKYPHTHLVQQA-NH2 [GDF11[48-64]wt, peptide reproducing the 48–64 region of GDF11 protein, acetylated and amidated]
